Consider 2 compounds from patent US20230023070A1, “Therapy for the Treatment of Cancer” (Celegene Corporation, priority 2019, published 2023).

Entries after “also recorded” stand apart in the source; their conditions may differ.

The test system of assay [1] is KMS-12BM cells. The assay can be described thus: Apoptosis by flow cytometry, Annexin-V and ToPro3 staining, after proteasome inhibitor pulse. The format is cell-based. To be noted: then 3 days treatment, AnnV+/ToPro3+; for apoptosis / cell killing in combination with bortezomib: 1 hour pulse with bortezomib; for apoptosis / cell killing in combination with carfilzomib: 1 hour pulse with carfilzomib. As to the method: Apoptosis was measured in KMS-12BM cells by flow cytometry using Annexin-V (AnnV+; x-axis) and ToPro3+ (y-axis) staining after either vehicle (DMSO), pomalidomide (POM) or Compound A-S treatment over 3 days following 1 hour pulse treatment with DMSO, Bortezomib (BORT) or Carfilzomib (CFZ) at indicated concentrations.
A general note: Flow cytometry measures light scatter and fluorescence of single cells or particles in a stream.

In assay [2] the test system is MM1.S cells. The assay can be described thus: Anti-proliferative activity by 3H-thymidine incorporation, combination with bortezomib. To be noted: 3 days, bortezomib 62.5 and 125.0 pM, pomalidomide 0.001-1.0 μM or Compound A-S 0.1-10.0 nM. The format is cell-based. As to the method: The anti-proliferative activity of pomalidomide (treatment of cells with 0.001-1.0 μM) combined with bortezomib (62.5 and 125.0 pM) or Compound A-S (treatment of cells with 0.1-10.0 nM) combined with bortezomib (62.5 and 125.0 pM) was measured by 3H-thymidine incorporation in MM1.S cells after 3 days of treatment in each condition. Combination indices (CI) were calculated using the Chou-Talalay Method for each combination. CI values below 1 indicated synergistic activity of combination.

For the compound `O=C1CC[C@H](N2Cc3c(OCc4ccc(CN5CCOCC5)cc4)cccc3C2=O)C(=O)N1` [Compound A-S, (S)-3-(4-((4-(morpholinomethyl)benzyl)oxy)-1-oxoisoindolin-2-yl)piperidine-2,6-dione], in assay [1], the “apoptosis / cell killing in combination with bortezomib” value is recorded as “induced cell killing; also recorded: apoptosis induced” and the “apoptosis / cell killing in combination with carfilzomib” value was “induced cell killing; also recorded: apoptosis induced”. Also, the “anti-proliferative activity in combination with bortezomib (combination index, Chou-Talalay; CI below 1 = synergistic)” value in assay [2] is listed as “synergistic”.
As to `Nc1cccc2c1C(=O)N(C1CCC(=O)NC1=O)C2=O` (stereo not drawn) [pomalidomide, reference compound], in assay [1], the “apoptosis / cell killing in combination with bortezomib” value is recorded as “induced cell killing” and the “apoptosis / cell killing in combination with carfilzomib” value is reported as “induced cell killing”. In addition, in assay [2], the “anti-proliferative activity in combination with bortezomib (combination index, Chou-Talalay; CI below 1 = synergistic)” value is reported as “synergistic”.
